Assay results as given in the NIST ThermoML archive (doi:10.1021/je400178k).
Numbers after ± are expanded uncertainties.

Experiment: molar heat capacity at constant pressure; xn = mol fraction of the nth substance listed
Details: 101 kPa, Liquid, Small sample (50 mg) DSC

NCCCN1CCOCC1 [N-(3-aminopropyl)morpholine] + O
molar heat capacity at constant pressure [J/K/mol]
Details	x1 = 0.0999	x1 = 0.2	x1 = 0.2921	x1 = 0.3916	x1 = 0.4896	x1 = 0.6011	x1 = 0.6947	x1 = 0.7952	x1 = 0.8939	x1 = 1
298.15 K	108.4 ± 2.5	136.2 ± 2.8	160.1 ± 3	183.1 ± 3.3	203.5 ± 3.5	224.3 ± 3.8	242.5 ± 4	261.6 ± 4.2	278.9 ± 4.4	296.2 ± 4.6
303.15 K	109.3 ± 2.5	137.2 ± 2.8	161.5 ± 3	184.9 ± 3.3	205.1 ± 3.5	226.3 ± 3.8	244.5 ± 4	263.6 ± 4.2	281 ± 4.4	298.2 ± 4.7
308.15 K	110.3 ± 2.5	138.2 ± 2.8	162.6 ± 3	186.4 ± 3.3	206.8 ± 3.5	227.8 ± 3.8	246.1 ± 4	265.1 ± 4.2	282.5 ± 4.5	299.6 ± 4.7
313.15 K	111.3 ± 2.5	139.5 ± 2.8	164 ± 3.1	188.1 ± 3.3	208.5 ± 3.6	229.5 ± 3.8	247.7 ± 4	266.7 ± 4.3	284 ± 4.5	301.2 ± 4.7
318.15 K	112.3 ± 2.6	140.9 ± 2.8	165.6 ± 3.1	189.9 ± 3.3	210.3 ± 3.6	231.2 ± 3.8	249.4 ± 4.1	268.4 ± 4.3	285.8 ± 4.5	302.8 ± 4.7
323.15 K	113.1 ± 2.6	142.3 ± 2.8	167.2 ± 3.1	191.3 ± 3.4	211.7 ± 3.6	232.9 ± 3.9	251.1 ± 4.1	270.1 ± 4.3	287.5 ± 4.5	304.5 ± 4.7
328.15 K	114 ± 2.6	143.7 ± 2.9	168.6 ± 3.1	192.9 ± 3.4	213.2 ± 3.6	234.4 ± 3.9	252.6 ± 4.1	271.6 ± 4.3	289.1 ± 4.6	306.1 ± 4.8
333.15 K	114.9 ± 2.6	145.3 ± 2.9	170.3 ± 3.1	194.5 ± 3.4	214.8 ± 3.6	236 ± 3.9	254.3 ± 4.1	273.4 ± 4.4	290.9 ± 4.6	307.9 ± 4.8
338.15 K	115.9 ± 2.6	146.8 ± 2.9	171.9 ± 3.1	196.2 ± 3.4	216.5 ± 3.7	237.7 ± 3.9	256 ± 4.1	275 ± 4.4	292.5 ± 4.6	309.6 ± 4.8
343.15 K	116.8 ± 2.6	148.2 ± 2.9	173.8 ± 3.2	197.6 ± 3.4	218.1 ± 3.7	239.5 ± 3.9	257.6 ± 4.2	276.5 ± 4.4	294.2 ± 4.6	311.3 ± 4.8
348.15 K	117.8 ± 2.6	149.7 ± 2.9	175.5 ± 3.2	199.3 ± 3.5	219.7 ± 3.7	240.9 ± 4	259.1 ± 4.2	277.9 ± 4.4	295.6 ± 4.6	312.7 ± 4.9
353.15 K	118.9 ± 2.6	151.1 ± 2.9	177.2 ± 3.2	201.6 ± 3.5	221.1 ± 3.7	242.1 ± 4	260.2 ± 4.2	278.7 ± 4.4	296.3 ± 4.6	313.4 ± 4.9

CN1CCNCC1 [N-methylpiperazine] + O
molar heat capacity at constant pressure [J/K/mol]
Details	x1 = 0.099	x1 = 0.1998	x1 = 0.2995	x1 = 0.4009	x1 = 0.4983	x1 = 0.6007	x1 = 0.6994	x1 = 0.7992	x1 = 0.8992	x1 = 1
298.15 K	99.4 ± 2.4	116 ± 2.6	128.8 ± 2.7	141.4 ± 2.8	153.8 ± 3	166.6 ± 3.1	179 ± 3.2	191.4 ± 3.4	203.6 ± 3.5	213.9 ± 3.6
303.15 K	100.6 ± 2.5	117.3 ± 2.6	130.4 ± 2.7	143.3 ± 2.8	155.6 ± 3	168.2 ± 3.1	180.5 ± 3.2	192.7 ± 3.4	204.7 ± 3.5	214.4 ± 3.6
308.15 K	101.6 ± 2.5	118.6 ± 2.6	131.9 ± 2.7	144.8 ± 2.9	157.1 ± 3	169.7 ± 3.1	182 ± 3.3	194.3 ± 3.4	205.8 ± 3.5	215 ± 3.6
313.15 K	102.7 ± 2.5	119.9 ± 2.6	133.4 ± 2.7	146.4 ± 2.9	158.6 ± 3	171.3 ± 3.1	183.4 ± 3.3	195.4 ± 3.4	206.8 ± 3.5	215.7 ± 3.6
318.15 K	103.7 ± 2.5	120.8 ± 2.6	134.6 ± 2.8	147.7 ± 2.9	159.8 ± 3	172.7 ± 3.2	184.7 ± 3.3	196.7 ± 3.4	207.8 ± 3.6	216.4 ± 3.7
323.15 K	104.6 ± 2.5	122.1 ± 2.6	136.2 ± 2.8	149.3 ± 2.9	161.4 ± 3	174 ± 3.2	185.7 ± 3.3	197.5 ± 3.4	208.5 ± 3.6	216.9 ± 3.7
328.15 K	105.6 ± 2.5	123.5 ± 2.7	137.8 ± 2.8	151.1 ± 2.9	163 ± 3.1	175.3 ± 3.2	186.9 ± 3.3	198.5 ± 3.4	209.2 ± 3.6	217.3 ± 3.7
333.15 K	106.1 ± 2.5	124.8 ± 2.7	139.4 ± 2.8	153.3 ± 3	165.5 ± 3.1	177.3 ± 3.2	188.2 ± 3.3	198.9 ± 3.5	209.3 ± 3.6	217.2 ± 3.7
338.15 K	106.6 ± 2.5	126.1 ± 2.7	140.9 ± 2.8	154.4 ± 3	166.8 ± 3.1	178.4 ± 3.2	189 ± 3.3	198.5 ± 3.4	208.2 ± 3.6	215.5 ± 3.6
343.15 K	107.3 ± 2.5	127.3 ± 2.7	142.4 ± 2.8	156 ± 3	168.2 ± 3.1	179.8 ± 3.2	190.6 ± 3.4	200.1 ± 3.5	209.2 ± 3.6	216.2 ± 3.7
348.15 K	108.2 ± 2.5	128.5 ± 2.7	143.8 ± 2.9	157.6 ± 3	170 ± 3.1	181.6 ± 3.3	192.4 ± 3.4	202.3 ± 3.5	211.4 ± 3.6	217.6 ± 3.7
353.15 K	109 ± 2.5	129.7 ± 2.7	145.2 ± 2.9	159.2 ± 3	171.5 ± 3.1	183 ± 3.3	193.8 ± 3.4	203.7 ± 3.5	212.7 ± 3.6	218 ± 3.7
